From PubChem BioAssay AID212 (DTP/NCI, 2004)
Several values for one entry are separate records, joined by “and”; a condition that tells them apart may be missing. Identical values can stand only once. Records with an inconclusive call do not appear.

System: BDF1 mice, colon carcinoma 38 sc, T/C %
Experiment: NCI In Vivo Anticancer Drug Screen. Data for tumor model Colon Carcinoma 38 (subcutaneous) in B6D2F1 (BDF1) mice
In short: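 Compound antitumor activity was assessed in mice carrying transplantable tumors. Survival or tumor size was recorded, and each value is the treated-group measurement divided by that of the vehicle-treated control group.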

`O=C1c2ccccc2C(=O)c2c(NCCNCCO)ccc(NCCNCCO)c21` was tested, and the T/C (endpoint: median survival time, dose: 20.0 mg/kg/injection, schedule: Q04DX004 (ip), vehicle: saline, higher = longer survival) was 110 % of control, the T/C (endpoint: median survival time, dose: 40.0 mg/kg/injection, schedule: Q04DX004 (ip), vehicle: saline, higher = longer survival) was 110 % of control and the T/C (endpoint: median survival time, dose: 80.0 mg/kg/injection, schedule: Q04DX004 (ip), vehicle: saline, higher = longer survival) was 120 % of control. The T/C (endpoint: median tumor weight (est.), dose: 1.0 mg/kg/injection, schedule: Q07DX002 (ip), vehicle: saline, higher = larger tumour) was 89 % of control, the T/C (endpoint: median tumor weight (est.), dose: 1.5 mg/kg/injection, schedule: Q07DX003 (ip), vehicle: saline with Tween-80, higher = larger tumour) was 47 % of control and 64 % of control and the T/C (endpoint: median tumor weight (est.), dose: 2.0 mg/kg/injection, schedule: Q07DX002 (ip), vehicle: saline, higher = larger tumour) was 77 % of control. The T/C (endpoint: median tumor weight (est.), dose: 3.0 mg/kg/injection, schedule: Q07DX003 (ip), vehicle: saline with Tween-80, higher = larger tumour) was 81 % of control, the T/C (endpoint: median tumor weight (est.), dose: 3.0 mg/kg/injection, schedule: Q07DX003 (ip), vehicle: saline, higher = larger tumour) was 59 % of control and 72 % of control and the T/C (endpoint: median tumor weight (est.), dose: 4.0 mg/kg/injection, schedule: Q07DX002 (ip), vehicle: acid diluted with saline, higher = larger tumour) was 82 % of control. The T/C (endpoint: median tumor weight (est.), dose: 4.0 mg/kg/injection, schedule: Q07DX002 (ip), vehicle: saline, higher = larger tumour) was 66 % of control, the T/C (endpoint: median tumor weight (est.), dose: 6.0 mg/kg/injection, schedule: Q07DX003 (ip), vehicle: saline with Tween-80, higher = larger tumour) was 11 % of control and the T/C (endpoint: median tumor weight (est.), dose: 8.0 mg/kg/injection, schedule: Q07DX002 (ip), vehicle: Klucel (hydroxypropylcellulose) (HPC), higher = larger tumour) was 107 % of control. For the same compound, the T/C (endpoint: median tumor weight (est.), dose: 8.0 mg/kg/injection, schedule: Q07DX002 (ip), vehicle: acid diluted with saline, higher = larger tumour) was 70 % of control, the T/C (endpoint: median tumor weight (est.), dose: 8.0 mg/kg/injection, schedule: Q07DX002 (ip), vehicle: saline, higher = larger tumour) was 82 % of control and the T/C (endpoint: median tumor weight (est.), dose: 8.0 mg/kg/injection, schedule: Q07DX003 (ip), vehicle: Klucel (hydroxypropylcellulose) (HPC), higher = larger tumour) was 65 % of control. The T/C (endpoint: median tumor weight (est.), dose: 8.0 mg/kg/injection, schedule: Q07DX003 (ip), vehicle: water, higher = larger tumour) was 56 % of control, the T/C (endpoint: median tumor weight (est.), dose: 16.0 mg/kg/injection, schedule: Q07DX002 (ip), vehicle: Klucel (hydroxypropylcellulose) (HPC), higher = larger tumour) was 120 % of control and the T/C (endpoint: median tumor weight (est.), dose: 16.0 mg/kg/injection, schedule: Q07DX002 (ip), vehicle: acid diluted with saline, higher = larger tumour) was 39 % of control. The T/C (endpoint: median tumor weight (est.), dose: 16.0 mg/kg/injection, schedule: Q07DX002 (ip), vehicle: saline, higher = larger tumour) was 48 % of control, the T/C (endpoint: median tumor weight (est.), dose: 16.0 mg/kg/injection, schedule: Q07DX003 (ip), vehicle: Klucel (hydroxypropylcellulose) (HPC), higher = larger tumour) was 54 % of control and the T/C (endpoint: median tumor weight (est.), dose: 16.0 mg/kg/injection, schedule: Q07DX003 (ip), vehicle: water, higher = larger tumour) was 47 % of control. For the same compound, the T/C (endpoint: median tumor weight (est.), dose: 25.0 mg/kg/injection, schedule: Q07DX003 (ip), vehicle: Klucel (hydroxypropylcellulose) (HPC), higher = larger tumour) was 46 % of control, the T/C (endpoint: median tumor weight (est.), dose: 25.0 mg/kg/injection, schedule: Q07DX003 (iv), vehicle: Klucel (hydroxypropylcellulose) (HPC), higher = larger tumour) was 4 % of control and 18 % of control and 25 % of control and the T/C (endpoint: median tumor weight (est.), dose: 32.0 mg/kg/injection, schedule: Q07DX002 (ip), vehicle: Klucel (hydroxypropylcellulose) (HPC), higher = larger tumour) was 65 % of control. For the same compound, the T/C (endpoint: median tumor weight (est.), dose: 32.0 mg/kg/injection, schedule: Q07DX002 (ip), vehicle: acid diluted with saline, higher = larger tumour) was 4 % of control, the T/C (endpoint: median tumor weight (est.), dose: 32.0 mg/kg/injection, schedule: Q07DX002 (ip), vehicle: saline, higher = larger tumour) was 10 % of control and the T/C (endpoint: median tumor weight (est.), dose: 32.0 mg/kg/injection, schedule: Q07DX003 (ip), vehicle: Klucel (hydroxypropylcellulose) (HPC), higher = larger tumour) was 52 % of control. The T/C (endpoint: median tumor weight (est.), dose: 32.0 mg/kg/injection, schedule: Q07DX003 (ip), vehicle: water, higher = larger tumour) was 28 % of control, the T/C (endpoint: median tumor weight (est.), dose: 50.0 mg/kg/injection, schedule: Q07DX003 (ip), vehicle: Klucel (hydroxypropylcellulose) (HPC), higher = larger tumour) was 45 % of control and the T/C (endpoint: median tumor weight (est.), dose: 50.0 mg/kg/injection, schedule: Q07DX003 (iv), vehicle: Klucel (hydroxypropylcellulose) (HPC), higher = larger tumour) was 11 % of control and 17 % of control. The T/C (endpoint: median tumor weight (est.), dose: 64.0 mg/kg/injection, schedule: Q07DX002 (ip), vehicle: Klucel (hydroxypropylcellulose) (HPC), higher = larger tumour) was 26 % of control.

For `C=C1CC2(OC1=O)C(=O)N(C)c1ccc(I)cc12` (stereo not given), the T/C (endpoint: median tumor weight (est.), dose: 1.81 mg/kg/injection, schedule: Q07DX002 (ip), vehicle: suspension in saline, higher = larger tumour) was 69 % of control, the T/C (endpoint: median tumor weight (est.), dose: 3.62 mg/kg/injection, schedule: Q07DX002 (ip), vehicle: suspension in saline, higher = larger tumour) was 114 % of control and the T/C (endpoint: median tumor weight (est.), dose: 7.25 mg/kg/injection, schedule: Q07DX002 (ip), vehicle: suspension in saline, higher = larger tumour) was 120 % of control. The T/C (endpoint: median tumor weight (est.), dose: 14.5 mg/kg/injection, schedule: Q07DX002 (ip), vehicle: suspension in saline, higher = larger tumour) was 63 % of control, the T/C (endpoint: median tumor weight (est.), dose: 25.0 mg/kg/injection, schedule: Q07DX002 (ip), vehicle: saline, higher = larger tumour) was 93 % of control and the T/C (endpoint: median tumor weight (est.), dose: 29.0 mg/kg/injection, schedule: Q07DX002 (ip), vehicle: suspension in saline, higher = larger tumour) was 107 % of control. For the same compound, the T/C (endpoint: median tumor weight (est.), dose: 58.0 mg/kg/injection, schedule: Q07DX002 (ip), vehicle: suspension in saline, higher = larger tumour) was 111 % of control, the T/C (endpoint: median tumor weight (est.), dose: 200.0 mg/kg/injection, schedule: Q07DX002 (ip), vehicle: saline, higher = larger tumour) was 89 % of control and the T/C (endpoint: median tumor weight (est.), dose: 400.0 mg/kg/injection, schedule: Q07DX002 (ip), vehicle: saline, higher = larger tumour) was 108 % of control and 121 % of control.
